Laboratory results reported in patent US5432064A, “Process for dephosphorylating linear polynucleotide substrate with prosphatase form aspergillus niger” (Board of Regents of the University of Nebraska, priority 1992, dated 1995).

Biological target: Aspergillus niger heat-labile phosphatase (4-nitrophenylphosphatase), purified, strain NRRL-3
Experiment: A. niger phosphatase activity assay with 4-NPP as substrate (formation of p-nitrophenol at 400 nm)
Format: biochemical
Experimental: A. niger phosphatase activity was routinely determined by monitoring, in a spectrophotometer set at an absorbance wavelength of 400 nm, the formation of p-nitrophenol generated by the hydrolysis of 4-NPP (purchased from Calbiochem). Non-enzymatic hydrolysis controls were routinely included. The phosphatase assay contained the following in a total volume of 1.0 ml: 8 mM 4-NPP; 25 mM Tris-HCl (pH 8.0); and 5 mM MgCl2. The reaction, which was initiated by addition of the crude, mycelium-free supernatant fluid mentioned above, was carried out at 30° C. in a Varian DMS 70 spectrophotometer with a wavelength bandpass of 2 nanometers. Molar absorptivity of 4-nitrophenol at pH 8.0 was 1.62×10^4 M^-1 cm^-1.
To further examine one of these potential substrates at a greater level of sensitivity, the enzyme was incubated with [gamma-^32 P]ATP under identical conditions and assayed for the liberation of ^32 Pi. No liberation above background was detected and hydrolysis of ATP appeared to occur at a rate less than one/ten-millionth of that observed with 4-NPP.
Prospective inhibitors were added to the standard assay with 4-NPP as substrate and inhibition was monitored and expressed as percent inhibition of the untreated sample (TABLE 3).

[1] = 1 mM inhibitor, incubated with the phosphatase for 15 minutes at room temperature prior to assay, 4-NPP as substrate
[2] = 1 mM inhibitor, standard assay with 4-NPP as substrate
[3] = 10 mM inhibitor, standard assay with 4-NPP as substrate

Structure (SMILES)	Inhibition (%) [1] [%]	Inhibition (%) [2] [%]	Inhibition (%) [3] [%]	also measured
Nc1ncnc2c1ncn2[C@@H]1O[C@H](COP(=O)(O)OP(=O)(O)OP(=O)(O)O)[C@@H](O)[C@H]1O [ATP, adenosine triphosphate]				Ki (competitive inhibition of hydrolysis of 4-NPP, read-out: Ki for ATP): 1300 µM
CCN1C(=O)C=CC1=O [N-ethylmaleimide]	75			
O=P(O)(O)OP(=O)(O)O [PPi, inorganic pyrophosphate]		4	56	
O=C(O)CI [iodoacetate]	96			
O=P(O)(O)O [orthophosphate]			39	
[F-].[Na+] [sodium fluoride]		22	80	
